Patent EP2970215B1, “PYRROLIDINE DERIVATIVES, PHARMACEUTICAL COMPOSITIONS CONTAINING THEM, AND THEIR USE IN THERAPY” (AbbVie Deutschland GmbH & Co. KG, priority 2013, dated 2014)

What follows are molecules tested against T1, human GlyT1c transporter (Homo sapiens, UniProt P48067) (assay: Radioligand binding assay using recombinant CHO cell membranes expressing human GlyT1). Settings: radioligand binding to human GlyT1c transporter-expressing membranes.
T1 construct: expressed in transfected cells; host or cells: CHO cells (recombinant; line hGlyT1c_5_CHO is named for the uptake assay)
T1 sequence (P48067 1-706): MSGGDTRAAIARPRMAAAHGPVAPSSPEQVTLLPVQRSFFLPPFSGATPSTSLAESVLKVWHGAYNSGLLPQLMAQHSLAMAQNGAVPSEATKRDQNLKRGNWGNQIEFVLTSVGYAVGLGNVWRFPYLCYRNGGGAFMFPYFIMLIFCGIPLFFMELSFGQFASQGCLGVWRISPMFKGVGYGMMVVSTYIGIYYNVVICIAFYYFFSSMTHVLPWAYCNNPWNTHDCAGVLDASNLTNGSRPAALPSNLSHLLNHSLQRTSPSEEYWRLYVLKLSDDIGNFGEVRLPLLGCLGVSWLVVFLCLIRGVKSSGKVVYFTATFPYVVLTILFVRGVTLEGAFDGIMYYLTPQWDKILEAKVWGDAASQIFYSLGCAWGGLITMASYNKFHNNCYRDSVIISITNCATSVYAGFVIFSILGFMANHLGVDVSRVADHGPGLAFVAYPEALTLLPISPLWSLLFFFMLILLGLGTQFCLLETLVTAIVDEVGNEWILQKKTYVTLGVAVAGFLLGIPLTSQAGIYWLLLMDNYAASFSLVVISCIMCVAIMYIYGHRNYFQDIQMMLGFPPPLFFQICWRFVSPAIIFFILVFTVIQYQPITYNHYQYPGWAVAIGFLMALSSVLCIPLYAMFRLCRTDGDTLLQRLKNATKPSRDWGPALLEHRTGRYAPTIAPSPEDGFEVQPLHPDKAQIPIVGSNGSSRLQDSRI
Excerpt: 2. Radioligand binding assays using recombinant CHO cell membranes expressing human GlyT1: […]

Ki [nM] | Compound
≤ 100 | CCCCCN[C@H]1CN(S(=O)(=O)c2cn(C)cn2)C[C@@H]1c1ccc(F)cc1 [Example 664, (3R,4S)-4-(4-fluorophenyl)-1-[(1-methyl-1H-imidazol-4-yl)sulfonyl]-N-pentylpyrrolidin-3-amine]
≤ 100 | Cn1cnc(S(=O)(=O)N2C[C@H](NCCOc3ccc(F)cc3)[C@@H](c3ccc(F)cc3)C2)c1 [Example 667, (3R,4S)-N-[2-(4-fluorophenoxy)ethyl]-4-(4-fluorophenyl)-1-[(1-methyl-1H-imidazol-4-yl)sulfonyl]pyrrolidin-3-amine]
≤ 100 | Cc1cc(N[C@H]2CN(S(=O)(=O)c3cn(C)cn3)C[C@@H]2c2ccccc2)ccc1Cl [Example 669, (3R,4S)-N-(4-chloro-3-methylphenyl)-1-[(1-methyl-1H-imidazol-4-yl)sulfonyl]-4-phenylpyrrolidin-3-amine]
≤ 1000 | Cn1cnc(S(=O)(=O)N2C[C@H](Nc3ccc4c(c3)CCO4)[C@@H](c3ccccc3)C2)c1 [Example 671, (3R,4S)-N-(2,3-dihydro-1-benzofuran-5-yl)-1-[(1-methyl-1H-imidazol-4-yl)sulfonyl]-4-phenylpyrrolidin-3-amine]
≤ 1000 | CCCCC(O)C(=O)N[C@H]1CN(S(=O)(=O)c2cn(C)cn2)C[C@@H]1c1ccc(F)cc1 (stereo partly drawn) [Example 673, N-{(3R,4S)-4-(4-fluorophenyl)-1-[(1-methyl-1H-imidazol-4-yl)sulfonyl]pyrrolidin-3-yl}-2-hydroxyhexanamide]
≤ 1000 | Cc1cc(N[C@H]2CN(S(=O)(=O)c3cn(C)cn3)C[C@@H]2c2ccc(F)cc2)ccc1C(F)(F)F [Example 676, (3R,4S)-4-(4-fluorophenyl)-1-[(1-methyl-1H-imidazol-4-yl)sulfonyl]-N-[3-methyl-4-(trifluoromethyl)phenyl]pyrrolidin-3-amine]
≤ 1000 | Cn1cnc(S(=O)(=O)N2CC(Nc3cccc(OC(F)(F)F)c3)C(C3CCN(C4CC4)CC3)C2)c1 (centres unmarked) [Example 678, -4-(1-cyclopropylpiperidin-4-yl)-1-[(1-methyl-1H-imidazol-4-yl)sulfonyl]-N-[3-(trifluoromethoxy)phenyl]pyrrolidin-3-amine]
≤ 1000 | CCCCCCN[C@H]1CN(S(=O)(=O)c2cn(C)cn2)C[C@@H]1C1CCCCO1 (stereo partly drawn) [Example 679, (3R,4S)-N-hexyl-1-[(1-methyl-1H-imidazol-4-yl)sulfonyl]-4-(tetrahydro-2H-pyran-2-yl)pyrrolidin-3-amine]
≤ 100 | Cn1cnc(S(=O)(=O)N2C[C@H](Nc3cc(Cl)ncn3)[C@@H](c3ccc(F)cc3)C2)c1 [Example 691, 6-chloro-N-{(3R,4S)-4-(4-fluorophenyl)-1-[(1-methyl-1H-imidazol-4-yl)sulfonyl]pyrrolidin-3-yl}pyrimidin-4-amine]
≤ 1000 | Cn1cnc(S(=O)(=O)N2C[C@H](NC(=O)Nc3ccccc3)[C@@H](c3ccc(F)cc3)C2)c1 [Example 692, 1-{(3R,4S)-4-(4-fluorophenyl)-1-[(1-methyl-1H-imidazol-4-yl)sulfonyl]pyrrolidin-3-yl}-3-phenylurea]
≤ 10000 | CC(=O)CCCC(=O)N[C@H]1CN(S(=O)(=O)c2cn(C)cn2)C[C@@H]1c1ccc(F)cc1 [Example 695, N-{(3R,4S)-4-(4-fluorophenyl)-1-[(1-methyl-1H-imidazol-4-yl)sulfonyl]pyrrolidin-3-yl}-5-oxohexanamide]
≤ 1000 | CCCCOC(=O)O[C@@H]1CN(S(=O)(=O)c2cn(C)cn2)C[C@H]1c1ccc(F)cc1 [Example 697, butyl (3S,4R)-4-(4-fluorophenyl)-1-[(1-methyl-1H-imidazol-4-yl)sulfonyl]pyrrolidin-3-yl carbonate]
≤ 10000 | CCCC(F)(F)C(=O)N[C@H]1CN(S(=O)(=O)c2cn(C)cn2)C[C@@H]1c1ccc(F)cc1 [Example 700, 2,2-difluoro-N-{(3R,4S)-4-(4-fluorophenyl)-1-[(1-methyl-1H-imidazol-4-yl)sulfonyl]pyrrolidin-3-yl}pentanamide]
≤ 1000 | Cn1cnc(S(=O)(=O)N2C[C@H](NC(=O)Nc3ccc(Cl)cc3)[C@@H](c3ccc(F)cc3)C2)c1 [Example 701, 1-(4-chlorophenyl)-3-{(3R,4S)-4-(4-fluorophenyl)-1-[(1-methyl-1H-imidazol-4-yl)sulfonyl]pyrrolidin-3-yl}urea]
≤ 10000 | Cn1cnc(S(=O)(=O)N2C[C@H](NC(=O)Nc3ccccc3F)[C@@H](c3ccc(F)cc3)C2)c1 [Example 702, 1-(2-fluorophenyl)-3-{(3R,4S)-4-(4-fluorophenyl)-1-[(1-methyl-1H-imidazol-4-yl)sulfonyl]pyrrolidin-3-yl}urea]

The remaining lines, values behind:

Compound | Ki [nM]
COC(=O)CCCC(=O)N[C@H]1CN(S(=O)(=O)c2cn(C)cn2)C[C@@H]1c1ccc(F)cc1 [Example 662, methyl 5-({(3R,4S)-4-(4-fluorophenyl)-1-[(1-methyl-1H-imidazol-4-yl)sulfonyl]pyrrolidin-3-yl}amino)-5-oxopentanoate] | ≤ 10000
Cn1cnc(S(=O)(=O)N2C[C@H](C(=O)NCc3ccc(C(F)(F)F)cc3Cl)[C@@H](c3ccc(F)cc3)C2)c1 [Example 663, (3R,4S)-N-[2-chloro-4-(trifluoromethyl)benzyl]-4-(4-fluorophenyl)-1-[(1-methyl-1H-imidazol-4-yl)sulfonyl]pyrrolidine-3-carboxamide] | ≤ 100
COCCOCCN[C@H]1CN(S(=O)(=O)c2cn(C)cn2)C[C@@H]1c1ccccc1 [Example 666, (3R,4S)-N-[2-(2-methoxyethoxy)ethyl]-1-[(1-methyl-1H-imidazol-4-yl)sulfonyl]-4-phenylpyrrolidin-3-amine] | ≤ 10000
Cn1cnc(S(=O)(=O)N2C[C@H](Nc3cccc(OCC(F)(F)F)c3)[C@@H](c3ccccc3)C2)c1 [Example 670, (3R,4S)-1-[(1-methyl-1H-imidazol-4-yl)sulfonyl]-4-phenyl-N-[3-(2,2,2-trifluoroethoxy)phenyl]pyrrolidin-3-amine] | ≤ 10
Cn1cnc(S(=O)(=O)N2C[C@H](Nc3ccc4c(c3)C(C)(C)CCO4)[C@@H](c3ccc(F)cc3)C2)c1 [Example 672, (3R,4S)-N-(4,4-dimethyl-3,4-dihydro-2H-chromen-6-yl)-4-(4-fluorophenyl)-1-[(1-methyl-1H-imidazol-4-yl)sulfonyl]pyrrolidin-3-amine] | ≤ 1000
CCCC(CCN[C@H]1CN(S(=O)(=O)c2cn(C)cn2)C[C@@H]1c1ccccc1)OC (stereo partly drawn) [Example 674, (3R,4S)-N-(3-methoxyhexyl)-1-[(1-methyl-1H-imidazol-4-yl)sulfonyl]-4-phenylpyrrolidin-3-amine] | ≤ 1000
CC(C)c1cc(N[C@H]2CN(S(=O)(=O)c3cn(C)cn3)C[C@@H]2c2ccc(F)cc2)ccc1Cl [Example 675, (3R,4S)-N-[4-chloro-3-(propan-2-yl)phenyl]-4-(4-fluorophenyl)-1-[(1-methyl-1H-imidazol-4-yl)sulfonyl]pyrrolidin-3-amine] | ≤ 1000
Cn1cnc(S(=O)(=O)N2C[C@H](Nc3ccc4ccsc4c3)[C@@H](c3ccc(F)cc3)C2)c1 [Example 677, (3R,4S)-N-(1-benzothiophen-6-yl)-4-(4-fluorophenyl)-1-[(1-methyl-1H-imidazol-4-yl)sulfonyl]pyrrolidin-3-amine] | ≤ 1000
Cn1cnc(S(=O)(=O)N2C[C@H](NCCCCC3OCCC(C)(C)O3)[C@@H](c3ccc(F)cc3)C2)c1 (stereo partly drawn) [Example 684, (3R,4S)-N-[4-(4,4-dimethyl-1,3-dioxan-2-yl)butyl]-4-(4-fluorophenyl)-1-[(1-methyl-1H-imidazol-4-yl)sulfonyl]pyrrolidin-3-amine] | ≤ 1000
Cc1nc(Cl)cc(N[C@H]2CN(S(=O)(=O)c3cn(C)cn3)C[C@@H]2c2ccc(F)cc2)n1 [Example 690, 6-chloro-N-{(3R,4S)-4-(4-fluorophenyl)-1-[(1-methyl-1H-imidazol-4-yl)sulfonyl]pyrrolidin-3-yl}-2-methylpyrimidin-4-amine] | ≤ 1000
Cn1cnc(S(=O)(=O)N2C[C@H](NC(=O)Oc3ccccc3)[C@@H](c3ccc(F)cc3)C2)c1 [Example 693, phenyl {(3R,4S)-4-(4-fluorophenyl)-1-[(1-methyl-1H-imidazol-4-yl)sulfonyl]pyrrolidin-3-yl}carbamate] | ≤ 10000
Cn1cnc(S(=O)(=O)N2C[C@H](NC(=O)Nc3ccccc3Cl)[C@@H](c3ccc(F)cc3)C2)c1 [Example 694, 1-(2-chlorophenyl)-3-{(3R,4S)-4-(4-fluorophenyl)-1-[(1-methyl-1H-imidazol-4-yl)sulfonyl]pyrrolidin-3-yl}urea] | ≤ 1000
Cn1cnc(S(=O)(=O)N2C[C@H](NC(=O)C3CCC(C(F)(F)F)CC3)[C@@H](c3ccc(F)cc3)C2)c1 (stereo partly drawn) [Example 696, N-{(3R,4S)-4-(4-fluorophenyl)-1-[(1-methyl-1H-imidazol-4-yl)sulfonyl]pyrrolidin-3-yl}-4-(trifluoromethyl)cyclohexanecarboxamide] | ≤ 10000
Cn1cnc(S(=O)(=O)N2C[C@H](NC(=O)CCCC(F)(F)F)[C@@H](c3ccc(F)cc3)C2)c1 [Example 698, 5,5,5-trifluoro-N-{(3R,4S)-4-(4-fluorophenyl)-1-[(1-methyl-1H-imidazol-4-yl)sulfonyl]pyrrolidin-3-yl}pentanamide] | ≤ 1000
